Measurements from ChEMBL document CHEMBL1131924, “Synthesis and biological evaluation of 1alpha,24-dihydroxy-25-nitrovitamin D3” (1999).

Key:
[1] = system: HL-60; assay: Cell differentiation activity towards HL-60 cells assessed in terms of 4-nitro-blue tetrazolium (NBT) reactivity; type: functional, Homo sapiens
[2] = target: T1, Vitamin D3 receptor (Gallus gallus) (UniProt O42392); assay: Relative binding affinity for chick intestinal Vitamin D3 receptor (VDR)
T1 sequence (whole entry): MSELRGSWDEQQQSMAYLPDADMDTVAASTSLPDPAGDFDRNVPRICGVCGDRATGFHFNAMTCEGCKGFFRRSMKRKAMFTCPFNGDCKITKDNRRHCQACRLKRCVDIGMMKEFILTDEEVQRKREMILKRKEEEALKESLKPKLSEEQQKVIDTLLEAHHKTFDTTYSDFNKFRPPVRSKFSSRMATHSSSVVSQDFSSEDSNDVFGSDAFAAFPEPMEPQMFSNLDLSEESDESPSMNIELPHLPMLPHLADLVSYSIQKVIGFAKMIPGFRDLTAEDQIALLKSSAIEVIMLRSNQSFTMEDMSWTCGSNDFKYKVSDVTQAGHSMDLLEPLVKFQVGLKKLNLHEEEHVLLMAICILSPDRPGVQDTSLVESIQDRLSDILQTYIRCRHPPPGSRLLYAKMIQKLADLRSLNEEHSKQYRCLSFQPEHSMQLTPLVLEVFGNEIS

Binding affinity [2]	SMILES	Activity [1]
100	C=C1/C(=C\C=C2/CCC[C@]3(C)[C@@H]([C@H](C)CCCC(C)(C)O)CC[C@@H]23)C[C@@H](O)C[C@@H]1O [CALCITRIOL]	100
131	C=C1/C(=C\C=C2/CCC[C@]3(C)[C@@H]([C@H](C)CC[C@@H](O)C(C)C)CC[C@@H]23)C[C@@H](O)C[C@@H]1O [TACALCITOL]	182
10	C=C1/C(=C\C=C2/CCC[C@]3(C)[C@@H]([C@H](C)CC[C@H](O)C(C)C)CC[C@@H]23)C[C@@H](O)C[C@@H]1O	18
10	C=C1/C(=C\C=C2/CCC[C@]3(C)[C@@H]([C@H](C)CC[C@H](O)C(C)(C)[N+](=O)[O-])CC[C@@H]23)C[C@@H](O)C[C@@H]1O	12
93	C=C1/C(=C\C=C2/CCC[C@]3(C)[C@@H]([C@H](C)CC[C@@H](O)C(C)(C)[N+](=O)[O-])CC[C@@H]23)C[C@@H](O)C[C@@H]1O	182
